Two substances from patent US20090156530A1, “Norepinepherine Transporter Mutants and Uses Thereof” (priority 2007, published 2009) can be followed below.

Experiment [1] relates to human NET. The experiment in a line: Surface biotinylation of HA-NET in transiently transfected CHO cells. It is filed as cell-based.
The target in experiment [2] is T1, NET (Mus musculus, UniProt O55192).
T1 construct: The pellets were collected as synaptosomes; from tissue; host or cells: mouse (C57/B16) brain cortex synaptosomes
T1 sequence (O55192 whole entry): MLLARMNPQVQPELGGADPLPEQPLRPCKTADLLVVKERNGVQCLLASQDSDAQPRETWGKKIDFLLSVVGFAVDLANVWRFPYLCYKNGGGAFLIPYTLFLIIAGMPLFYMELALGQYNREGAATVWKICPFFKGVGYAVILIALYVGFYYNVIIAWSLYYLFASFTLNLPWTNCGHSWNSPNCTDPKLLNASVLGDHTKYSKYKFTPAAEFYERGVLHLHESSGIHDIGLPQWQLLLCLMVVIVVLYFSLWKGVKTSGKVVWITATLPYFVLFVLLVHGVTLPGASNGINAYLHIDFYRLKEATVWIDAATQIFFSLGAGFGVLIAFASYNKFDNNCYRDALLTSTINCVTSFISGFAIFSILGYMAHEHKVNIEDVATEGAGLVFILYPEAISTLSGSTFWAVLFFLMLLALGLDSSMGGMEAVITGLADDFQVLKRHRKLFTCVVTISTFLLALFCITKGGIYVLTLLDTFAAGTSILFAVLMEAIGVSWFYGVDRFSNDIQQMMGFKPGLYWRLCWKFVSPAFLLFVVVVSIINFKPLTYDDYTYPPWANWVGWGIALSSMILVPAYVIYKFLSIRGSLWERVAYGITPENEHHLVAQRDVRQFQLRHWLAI
The experiment in a line: NE transport assay in cortical synaptosomes. It is filed as biochemical. The procedure: Cell culture, transfection of cDNA or siRNA, generation of stable cell lines, preparation of cortical synaptosomes. CHO cells were maintained in DMEM/10% fetal bovine serum (FBS), 2 mM L-glutamine (L-Glu), 100 IU/ml penicillin, 100 μg/ml streptomycin (pen/strep). […]. The stable clones were selected using hygromycin B ([…], Invitrogen) and maintained in Ham's F12/10% FBS/L-Glu/pen/strep supplemented with Zeocin […] (Invitrogen). CAD-NET cells were generated by stably transfecting HA-NET in pcDNA3 into CAD cells and maintained in DMEM/F12/8% FBS/L-Glu/pen/strep/200 μg/ml of G418 (Mediatech). TransIT-LT1 transfection reagent (Mirus) was used for all transfections. All cells were plated on poly-D-lysine coated plates and incubated for 48 hrs for cDNA transfection and for 48 to 72 hrs for siRNA transfection prior to assays. For synaptosomal preparations, brain cortex was dissected from mice (C57/B16, Harlan) and homogenized in 10 mM HEPES, 0.32 M Sucrose, pH 7.4 using a Teflon pestle/homogenizer. Homogenates were centrifuged at 1,000 g, 5 min at 4° C., and then the supernatant were re-centrifuged at 16,000 g, 20 min at 4° C. The pellets were collected as synaptosomes.
Assay buffers, transport assays, Ca^2+ imaging. NE transport assays on synaptosomes (50-100 μg/assay reaction) or cells were described previously (Sung et al., 2003). Uptake assay was carried out in KRH/Ca^2+ (mM: 120 NaCl, 4.7 KCl, 1.2 KH2PO4, 10 HEPES, 1.2 MgSO4, 2.2 CaCl2, pH 7.4,) with 0.1 mM pargylnine, ascorbic acid, tropolone, and 1.8 mg/ml glucose, otherwise mentioned. KRH/EGTA is KRH with 0.2 mM EGTA and without CaCl2. When KRH/EGTA was used, KRH/Ca^2+ for the parallel experiment contained 0.2 mM EGTA as well. Uptake assays were initiated by addition of [^3H]-NE (1-[7,8-^3H] noradrenaline, Amersham Pharmacia) at 50 nM final concentration. For kinetics assays, 50, 100, 200 nM of [^3H]-NE, 400, 600, 800, 1,000, 1,200, 1,500 nM of 20% [^3H]-NE and 80% of unlabeled NE (Sigma) were used. Nonspecific uptake was defined using 1-10 μM desipramine. All assays were carried out at 37° C. for 10 min in triplicates. Ca^2+ imaging was performed as described previously (Apparsundaram et al., 2001). CHO cells were pre-loaded with […] fura-2/acetoxymethyl ester (fura-2/AM, Molecular Probe) and superfused with KRH/EGTA and 1 μM thapsigargin for 10 min. The medium was replaced with KRH/Ca^2+ or KRH/EGTA before measurement of intracellular Ca^2+. All experiments derive from at least 3 independent data and mean values were evaluated using a two-tailed Student's t-test or a one-way ANOVA, followed by Tukey's test, with p<0.05 considered significant (*). Data were analyzed using GraphPad Prism 4.
Protocols for restoration and depletion of Ca^2+ For uptake assay, synaptosomes were pre-incubated with drugs in KRH/Ca^2+. For increase of Ca^2+, synaptosomes were re-suspended in KRH/EGTA, transferred to fresh KRH/EGTA (EGTA to EGTA) or KRH/Ca^2+ (EGTA to Ca^2+), and incubated at 37° C. for 5 min prior to the addition of radiolabeled NE. NE uptake activity of synaptosomes in KRH/Ca^2+ was compared to the activity of synaptosomes in KRH/EGTA. For reduction of Ca^2+, synaptosomes were first resuspended in KRH/Ca^2+, divided into 2 aliquots, replaced with fresh KRH/Ca^2+ (Ca^2+ to Ca^2+) or KRH/EGTA (Ca^2+ to EGTA), and incubated at 37° C. for 5 min prior to the addition of radiolabeled NE. NE uptake activity of synaptosomes in KRH/EGTA was compared to the activity of synaptosomes in KRH/Ca^2+. Control cells were treated the same way except use of complete media with vehicle. Restoration of Ca^2+ for surface biotinylation was carried out by incubating cells in KRH/EGTA with 0.1-1 μM thapsigargin for 10 min at 37° C. to deplete Ca^2+. Cells were washed once with KRH/EGTA, replaced with KRH/EGTA or KRH/Ca^2+, and incubated for 1 min at RT to 5 min at 37° C. prior to biotinylation. […]

In experiment [3] the test system is NET. The experiment in a line: NE transport assay in CAD-NET cells. It is filed as cell-based, human. The following applies: KRH/Ca^2+.
Method: Uptake assay was carried out in KRH/Ca^2+ (mM: 120 NaCl, 4.7 KCl, 1.2 KH2PO4, 10 HEPES, 1.2 MgSO4, 2.2 CaCl2, pH 7.4,) with 0.1 mM pargylnine, ascorbic acid, tropolone, and 1.8 mg/ml glucose, otherwise mentioned. KRH/EGTA is KRH with 0.2 mM EGTA and without CaCl2. When KRH/EGTA was used, KRH/Ca^2+ for the parallel experiment contained 0.2 mM EGTA as well. […] Nonspecific uptake was defined using 1-10 μM desipramine. All assays were carried out at 37° C. for 10 min in triplicates. […] All experiments derive from at least 3 independent data and mean values were evaluated using a two-tailed Student's t-test or a one-way ANOVA, followed by Tukey's test, with p<0.05 considered significant (*).
Experiment [4] relates to NET. In words: Surface NET immunolabeling in cultured SCG neurons on high K+ depolarization. It counts as cell-based, rat. The settings on record: SCG cultures, high potassium buffer, preincubated with drug. The procedure:
Primary neuronal culture, immunohistochemistry, electrophysiology. […] Surface-labeling of NET has been preformed by staining non-fixed SCG culture with anti-NET sera 43408 as described in (Savchenko et al., 2003). For detection of plasma membrane changes+/−depolarization, SCG neurons were preincubated with normal medium (2.5 mM K+) or in 40 mM or 90 mM K^+ for 15 min followed by incubation with NET 43408 antibody for 1 hr at RT in the absence of detergent. Cells were washed and fixed with 3% p-formaldehyde for 10 min prior to visualization of NET labeling using Cy3-conjugated anti-rabbit antibodies. Specimens from multiple fields were examined with a Zeiss LSM 510 Meta imaging system equipped with internal He/Ne and external Ar/Kr lasers. Images were collected were averaged across multiple fields of replicate experiments (n=3), pseudocolored for presentation, and pixel intensity calculated over processes immunopositive by double-staining for tubulin immunoreactivity in Metamorph.

In experiment [5] the test system is NET. In words: Whole cell patch clamp recording of NET currents in SCG neurons. It is filed as cell-based, rat. The settings on record: 200 μM CdCl2; 5 μM KN93 15 min; 2 μM STO609 20 min. The procedure: Whole Cell Patch Clamp Recording of NET currents. Patch clamp experiments were performed using an amplifier Axopatch 200B with a low-pass filter set at 1 kHz. Quartz patch pipettes with 5-7 MΩ resistance were pulled by a programmable puller (model P-2000, Sutter Instruments Novato, Calif.) and filled with the internal solution containing (in mM): 120 KCl, 2 MgCl2, 10 HEPES, 2 MgATP, 30 dextrose and adjusted to pH 7.35. SCG neurons were washed twice with a control solution containing mMs 130 NaCl, 5 CaCl2, 0.5 MgCl2, 1.3 KCl, 10 HEPES, 34 dextrose adjusted to pH 7.35 before experiments. NET-mediated current was defined as the current recorded in control condition minus the current recorded in presence of 5 μM desipramine. Neurons were clamp at −50 mV and the NET-mediated current was recorded by stepping the membrane voltage to −120 mV for 500 ms before and after a 2 sec depolarizing step at −10 mV. NET-mediated current was studied in the control condition, in presence of 200 μM CdCl2, after 15 min preincubation with 5 μM KN93 and after 20 min preincubation with 2 μM STO609.
In general terms: The patch-clamp technique gives a direct electrical read-out from membranes.

Experiment [6] has as its system human NET. The experiment in a line: NE transport assay in transiently transfected CHO cells. It counts as cell-based.
Target sequence in this assay (P23975 48-617 limits assumed): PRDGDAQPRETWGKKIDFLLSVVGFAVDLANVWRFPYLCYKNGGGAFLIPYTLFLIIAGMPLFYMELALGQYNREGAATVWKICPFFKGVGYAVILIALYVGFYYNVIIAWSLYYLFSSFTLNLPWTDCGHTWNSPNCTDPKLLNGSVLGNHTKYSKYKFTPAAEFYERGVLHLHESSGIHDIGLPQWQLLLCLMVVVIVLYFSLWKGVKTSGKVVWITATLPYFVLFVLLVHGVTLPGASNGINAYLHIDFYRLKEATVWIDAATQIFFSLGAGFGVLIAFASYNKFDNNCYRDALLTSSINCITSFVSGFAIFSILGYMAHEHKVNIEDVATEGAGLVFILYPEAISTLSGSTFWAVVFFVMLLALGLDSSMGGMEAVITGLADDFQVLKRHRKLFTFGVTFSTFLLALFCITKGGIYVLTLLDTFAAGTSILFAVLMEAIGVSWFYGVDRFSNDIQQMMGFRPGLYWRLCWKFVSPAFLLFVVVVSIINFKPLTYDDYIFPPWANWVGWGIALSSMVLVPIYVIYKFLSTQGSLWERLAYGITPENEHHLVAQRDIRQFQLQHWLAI
Experiment [7] concerns human NET. The experiment in a line: [32P] metabolic labeling and immunoprecipitation of NET in stable CHO cells. It counts as cell-based. The following applies: KRH/EGTA to KRH/Ca^2+ for 5 min. The procedure: Cell culture, transfection of cDNA or siRNA, generation of stable cell lines, preparation of cortical synaptosomes. CHO cells were maintained in DMEM/10% fetal bovine serum (FBS), 2 mM L-glutamine (L-Glu), 100 IU/ml penicillin, 100 μg/ml streptomycin (pen/strep). CHO-NET or CHO-NET T30A cells were generated by stably transfecting HA-NET or HA-NET T30A in pcDNA5/FRT (Invitrogen) into CHO-Flip-In cells (Invitrogen). The stable clones were selected using hygromycin B ([…], Invitrogen) and maintained in Ham's F12/10% FBS/L-Glu/pen/strep supplemented with Zeocin […] (Invitrogen). CAD-NET cells were generated by stably transfecting HA-NET in pcDNA3 into CAD cells and maintained in DMEM/F12/8% FBS/L-Glu/pen/strep/200 μg/ml of G418 (Mediatech). TransIT-LT1 transfection reagent (Mirus) was used for all transfections. All cells were plated on poly-D-lysine coated plates and incubated for 48 hrs for cDNA transfection and for 48 to 72 hrs for siRNA transfection prior to assays. […]
Biochemical analysis and phosphorylation. […] Phosphorylated bands were captured via Phosphoimager (Typhoon 9400, Molecular Dynamics/GE Healthcare Life Sciences) and analyzed using ImageQuant 5.2 (Molecular Dynamics). […] Exposed films of immunoblots were scanned using an Agfa Duoscan T1200 and the captured images processed in Adobe® Photoshop® and quantitated using NIH image.

As to KN93, in experiment [1] (CHO cells, 5 μM KN93 30 min or 5 μM STO-609 1 hour, Ca^2+ depletion), the “Effect on Ca^2+-depletion elicited reduction of NET surface density” value is “blocked”. Further, the “Effect on Ca^2+-stimulated elevation of NET surface density” value in experiment [1] (CHO cells, 5 μM KN93 30 min or 5 μM STO-609 1 hour, KRH/EGTA to KRH/Ca^2+) is “blocked”. In addition, in experiment [2] (0.1-1 μM BIM, 5 μM KN93 or 10 μM W7, 15 min at 37° C.), the “NE transport in KRH/Ca^2+ after drug treatment” value is on record as “inhibited NE transport”. The “NE transport after addition of Ca^2+, % of control” value in experiment [2] (drug pre-treated synaptosomes, KRH/EGTA to KRH/Ca^2+ (2.2 mM final), 5 μM KN93) was 140.5+/−11.2%. In addition, the “NE uptake when switched to KRH/EGTA, % of NE uptake in KRH/Ca^2+” value in experiment [2] (drug pre-treated synaptosomes, 5 μM KN93) is recorded as 67.5+/−7.2%. Also, the “Effect on reduction in NET activity on switch from KRH/Ca^2+ to KRH/EGTA” value in experiment [2] (pre-incubation with drug) is “blunted”. Besides, the “Effect on elevation in NET activity triggered by addition of Ca^2+” value in experiment [2] (pre-incubation with drug, KRH/EGTA to KRH/Ca^2+) was “significantly blunted the elevation in NET activity”. The “Basal NE transport” value in experiment [3] is reported as “able to suppress NE transport”. Also, the “Depolarization triggered increase of surface NET density” value in experiment [4] is reported as “failed to increase surface NET density”. For the same substance, the “Effect on increase in NET current triggered by prior depolarization” value in experiment [5] is “prevented the stimulation-elicited increase in NET currents”.

On to “NET T30A: human NET with T30 mutated to alanine, HA-tagged”, for which the “Basal surface expression versus wildtype hNET” value in experiment [1] (CHO cells, n=3) was 117+/−18.5%. The “Change of transporter surface density in response to Ca^2+ manipulations (addition or depletion)” value in experiment [1] (HA-tagged NET mutants in CHO cells) is “complete lack of Ca^2+ sensitivity”. In addition, the “Recovery of NE transport after Ca^2+ depletion” value in experiment [6] (15 min Ca^2+ restoration including 10 min transport assay) is reported as “failed to recover NE transport activity”. For the same substance, the “NE transport activity in KRH/Ca^2+” value in experiment [6] (transiently transfected CHO cells) is listed as “equivalent to wild-type NET”. In addition, in experiment [7], the “Phosphorylation following Ca^2+ addition” value was “no phosphorylation”.
